For 26 compounds, IC50 results are on record in patent US9718828B2 (MERCK SHARP & DOHME CORP., priority 2011, dated 2017).

Chain of hBTK (full-length BTK, 6HIS-tag cleaved) (Q06187 whole entry): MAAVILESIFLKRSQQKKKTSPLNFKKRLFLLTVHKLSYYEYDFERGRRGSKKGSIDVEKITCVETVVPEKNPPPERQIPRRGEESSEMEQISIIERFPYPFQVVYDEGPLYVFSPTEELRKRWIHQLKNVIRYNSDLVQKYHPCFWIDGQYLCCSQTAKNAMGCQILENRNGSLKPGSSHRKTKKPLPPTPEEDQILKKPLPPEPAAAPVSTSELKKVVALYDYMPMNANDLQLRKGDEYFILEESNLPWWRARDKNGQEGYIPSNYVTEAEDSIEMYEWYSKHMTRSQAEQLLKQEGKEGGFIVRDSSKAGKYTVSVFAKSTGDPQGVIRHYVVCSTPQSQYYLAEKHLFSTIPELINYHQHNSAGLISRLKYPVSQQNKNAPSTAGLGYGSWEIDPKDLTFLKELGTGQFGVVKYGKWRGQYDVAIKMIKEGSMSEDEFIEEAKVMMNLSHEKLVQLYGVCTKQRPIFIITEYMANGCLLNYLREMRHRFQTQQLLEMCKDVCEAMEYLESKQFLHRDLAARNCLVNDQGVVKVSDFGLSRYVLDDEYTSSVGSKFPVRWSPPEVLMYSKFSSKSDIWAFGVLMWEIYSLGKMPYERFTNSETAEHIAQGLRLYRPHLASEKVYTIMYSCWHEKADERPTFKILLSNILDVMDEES

This experiment addresses hBTK (full-length BTK, 6HIS-tag cleaved) (Homo sapiens (Human), UniProt Q06187). Briefly: BTK enzymatic activity, LANCE TR-FRET assay (Assay Method C). It counts as biochemical. The note with it: LANCE TR-FRET, 50 pM hBTK, 25 μM ATP; class 100-1000 is given as ≧100 nM-<1 μM; read-out: IC50 Btk activity values - Assay Method C. (In TR-FRET formats the signal depends on donor and acceptor labels being close together.)
The term IC50 denotes the point on the concentration scale where inhibition reaches its midpoint. For `Cc1cnc(N)c2c(-c3ccc(C(=O)Nc4cc(C(C)(F)F)ccn4)cc3)nc([C@@H]3CCCN(C(=O)C4(C)COC4)C3)n12` [Example 454, 4-(8-amino-5-methyl-3-{(3R)-1-[(3-methyloxetan-3-yl)carbonyl]piperidin-3-yl}imidazo[1,5-a]pyrazin-1-yl)-N-[4-(1,1-difluoroethyl)pyridin-2-yl]benzamide], the IC50 is less than 10 nM. As for `CC1(C(=O)N2CCC[C@@H](c3nc(-c4ccc(C(=O)Nc5cc(C(F)(F)F)ccn5)cc4)c4c(N)ncc(C=O)n34)C2)COC1` [Example 464, 4-(8-amino-5-formyl-3-{(3R)-1-[(3-methyloxetan-3-yl)carbonyl]piperidin-3-yl}imidazo[1,5-a]pyrazin-1-yl)-N-[4-(trifluoromethyl)pyridin-2-yl]benzamide], the IC50 was in the range of 10 to 100 nM.

Regarding `CO[C@@H](C)c1cnc(N)c2c(-c3ccc(C(=O)Nc4cc(C(F)(F)F)ccn4)cc3)nc([C@@H]3CCCN(C(=O)C4(C)COC4)C3)n12` [Example 468, 4-(8-amino-5-[(1S)-1-methoxyethyl]-3-{(3R)-1-[(3-methyloxetan-3-yl)carbonyl]piperidin-3-yl}imidazo[1,5-a]pyrazin-1-yl)-N-[4-(trifluoromethyl)pyridin-2-yl]benzamide], the IC50 was less than 10 nM.

On to `COc1ccnc(NC(=O)c2ccc(-c3nn([C@@H]4CCCN(C(=O)C5(C)COC5)C4)c4ccnc(N)c34)cc2)c1` [Example 388, 4-(4-amino-1-{(3R)-1-[(3-methyloxetan-3-yl)carbonyl]piperidin-3-yl}-1H-pyrazolo[4,3-c]pyridin-3-yl)-N-(4-methoxypyridin-2-yl)benzamide], for which the IC50 is less than 10 nM.

Regarding `CN1CC(C(=O)N2CCO[C@@H](c3nc(-c4ccc(C(=O)Nc5cc(C(F)(F)F)ccn5)cc4)c4c(N)nccn34)C2)C1` [Example 501, 4-(8-amino-3-{(2R)-4-[(1-methylazetidin-3-yl)carbonyl]morpholin-2-yl}imidazo[1,5-a]pyrazin-1-yl)-N-[4-(trifluoromethyl)pyridin-2-yl]benzamide], the IC50 is less than 10 nM. `COC(=O)N1C[C@@H](c2nc(-c3ccc(C(=O)Nc4cc(C(F)(F)F)ccn4)cc3)c3c(N)nccn23)CC[C@@H]1C(F)(F)F` [Example 430, methyl (2R,5S)-5-[8-amino-1-(4-{[4-(trifluoromethyl)pyridin-2-yl]carbamoyl}phenyl)imidazo[1,5-a]pyrazin-3-yl]-2-(trifluoromethyl)piperidine-1-carboxylate]: the IC50 is less than 10 nM. As to `Nc1nccn2c([C@@H]3CCCN(C(=O)C4CC4(F)F)C3)nc(-c3ccc(C(=O)Nc4cc(C(F)(F)F)ccn4)cc3)c12` (stereo partly drawn) [Example 344, 4-(8-amino-3-{(3R)-1-[(2,2-difluorocyclopropyl)carbonyl]piperidin-3-yl}imidazo[1,5-a]pyrazin-1-yl)-N-[4-(trifluoromethyl)pyridin-2-yl]benzamide], the IC50 was less than 10 nM. For `CCCOc1ccnc(NC(=O)c2ccc(-c3nc([C@@H]4CCCN(C(=O)C5(C)COC5)C4)n4ccnc(N)c34)c(F)c2)c1` [Example 481, 4-(8-amino-3-{(3R)-1-[(3-methyloxetan-3-yl)carbonyl]piperidin-3-yl}imidazo[1,5-a]pyrazin-1-yl)-3-fluoro-N-(4-propoxypyridin-2-yl)benzamide], the IC50 was less than 10 nM.

Regarding `COCC1(C(=O)N2CCC[C@@H](c3nc(-c4ccc(C(=O)Nc5cc(C(F)(F)F)ccn5)cc4)c4c(N)nccn34)C2)CC1` [Example 334, 4-{8-amino-3-[(3R)-1-{[1-(methoxymethyl)cyclopropyl]carbonyl}piperidin-3-yl]imidazo[1,5-a]pyrazin-1-yl}-N-[4-(trifluoromethyl)pyridin-2-yl]benzamide], the IC50 was less than 10 nM. For the compound `CC(=O)N1CCC[C@@H](n2nc(-c3ccc(C(=O)Nc4cc(C(F)(F)F)ccn4)cc3)c3c(N)nccc32)C1` [Example 385, 4-{1-[(3R)-1-acetylpiperidin-3-yl]-4-amino-1H-pyrazolo[4,3-c]pyridin-3-yl}-N-[4-(trifluoromethyl)pyridin-2-yl]benzamide], the IC50 was less than 10 nM.

In the case of `CN1C[C@@H](c2nc(-c3ccc(C(=O)Nc4cc(C(F)(F)F)ccn4)cc3)c3c(N)nccn23)CC[C@@H]1C(F)(F)F` [Example 410, 4-{8-amino-3-[(3S,6R)-1-methyl-6-(trifluoromethyl)piperidin-3-yl]imidazo[1,5-a]pyrazin-1-yl}-N-[4-(trifluoromethyl)pyridin-2-yl]benzamide], the IC50 was less than 10 nM. For the compound `CCc1ccnc(NC(=O)c2ccc(-c3nc([C@@H]4CCCN(C(=O)C5(O)CC5)C4)n4ccnc(N)c34)cc2)c1` [Example 371, 4-(8-amino-3-{(3R)-1-[(1-hydroxycyclopropyl)carbonyl]piperidin-3-yl}imidazo[1,5-a]pyrazin-1-yl)-N-(4-ethylpyridin-2-yl)benzamide], the IC50 is less than 10 nM. For the compound `CC1(C(=O)N2CCC[C@@H](c3nc(-c4ccc(C(=O)Nc5ccc(C#N)cn5)cc4)c4c(N)nccn34)C2)COC1` [Example 327, 4-(8-amino-3-{(3R)-1-[(3-methyloxetan-3-yl)carbonyl]piperidin-3-yl}imidazo[1,5-a]pyrazin-1-yl)-N-(5-cyanopyridin-2-yl)benzamide], the IC50 was less than 10 nM. In the case of `N#CCN1CCO[C@@H](c2nc(-c3ccc(C(=O)Nc4cc(C(F)(F)F)ccn4)cc3)c3c(N)nccn23)C1` [Example 531, 4-{8-amino-3-[(2R)-4-(cyanomethyl)morpholin-2-yl]imidazo[1,5-a]pyrazin-1-yl}-N-[4-(trifluoromethyl)pyridin-2-yl]benzamide] it was less than 10 nM; in that of `CC1(C(=O)N2CCC[C@@H](c3nc(-c4ccc(C(=O)Nc5ncc(C(C)(C)C)s5)cc4)c4c(N)nccn34)C2)COC1` [Example 369, 4-(8-amino-3-{(3R)-1-[(3-methyloxetan-3-yl)carbonyl]piperidin-3-yl}imidazo[1,5-a]pyrazin-1-yl)-N-(5-tert-butyl-1,3-thiazol-2-yl)benzamide], less than 10 nM; in that of `Cc1cnc(N)c2c(-c3ccc(C(=O)Nc4cc(OC5CC5)ccn4)cc3)nc([C@@H]3CCCN(C(=O)C4CC4)C3)n12` [Example 457, 4-{8-amino-3-[(3R)-1-(cyclopropylcarbonyl)piperidin-3-yl]-5-methylimidazo[1,5-a]pyrazin-1-yl}-N-[4-(cyclopropyloxy)pyridin-2-yl]benzamide], less than 10 nM. As to `N#CCCN1CCO[C@@H](c2nc(-c3ccc(C(=O)Nc4cc(C(F)(F)F)ccn4)cc3)c3c(N)nccn23)C1` [Example 532, 4-{8-amino-3-[(2R)-4-(2-cyanoethyl)morpholin-2-yl]imidazo[1,5-a]pyrazin-1-yl}-N-[4-(trifluoromethyl)pyridin-2-yl]benzamide], the IC50 is less than 10 nM.

As for `CC(=O)N1CCC[C@@H](c2nc(-c3ccc(C(=O)Nc4cc(C(F)(F)F)ccn4)cc3)c3c(N)ncc(Cl)n23)C1` [Example 440, 4-{3-[(3R)-1-acetylpiperidin-3-yl]-8-amino-5-chloroimidazo[1,5-a]pyrazin-1-yl}-N-[4-(trifluoromethyl)pyridin-2-yl]benzamide], the IC50 is less than 10 nM. On to `CCN1C[C@@H](c2nc(-c3ccc(C(=O)Nc4ccccn4)cc3)c3c(N)nccn23)CC[C@@H]1C(F)(F)F` [Example 408, 4-{8-amino-3-[(3S,6R)-1-ethyl-6-(trifluoromethyl)piperidin-3-yl]imidazo[1,5-a]pyrazin-1-yl}-N-pyridin-2-ylbenzamide], for which the IC50 is less than 10 nM. Regarding `CC1(C(=O)N2CCC[C@@H](c3nc(-c4ccc(C(=O)Nc5cc(C6CCC6)ccn5)cc4)c4c(N)nccn34)C2)COC1` [Example 354, 4-(8-amino-3-{(3R)-1-[(3-methyloxetan-3-yl)carbonyl]piperidin-3-yl}imidazo[1,5-a]pyrazin-1-yl)-N-(4-cyclobutylpyridin-2-yl)benzamide], the IC50 was less than 10 nM. For `C[C@@H](O)C(=O)N1CCO[C@@H](c2nc(-c3ccc(C(=O)Nc4cc(C(F)(F)F)ccn4)cc3)c3c(N)nccn23)C1` [Example 520, 4-(8-amino-3-{(2R)-4-[(2R)-2-hydroxypropanoyl]morpholin-2-yl}imidazo[1,5-a]pyrazin-1-yl)-N-[4-(trifluoromethyl)pyridin-2-yl]benzamide], the IC50 is less than 10 nM. As for `CC(=O)N1C[C@@H](c2nc(-c3ccc(C(=O)Nc4cc(C(F)(F)F)ccn4)cc3)c3c(N)nccn23)CC[C@@H]1C(F)(F)F` [Example 427, 4-{3-[(3S,6R)-1-acetyl-6-(trifluoromethyl)piperidin-3-yl]-8-aminoimidazo[1,5-a]pyrazin-1-yl}-N-[4-(trifluoromethyl)pyridin-2-yl]benzamide], the figure is less than 10 nM. `Cn1ccc(NC(=O)c2ccc(-c3nc([C@@H]4CCCN(C(=O)C5(C)COC5)C4)n4ccnc(N)c34)cc2)n1` [Example 365, 4-(8-amino-3-{(3R)-1-[(3-methyloxetan-3-yl)carbonyl]piperidin-3-yl}imidazo[1,5-a]pyrazin-1-yl)-N-(1-methyl-1H-pyrazol-3-yl)benzamide]: the IC50 is 10 to 100 nM. As to `CCN1CCO[C@@H](c2nc(-c3ccc(C(=O)Nc4cc(C(F)(F)F)ccn4)cc3)c3c(N)ncc(C)n23)C1` [Example 511, 4-{8-amino-3-[(2R)-4-ethylmorpholin-2-yl]-5-methylimidazo[1,5-a]pyrazin-1-yl}-N-[4-(trifluoromethyl)pyridin-2-yl]benzamide], the IC50 is less than 10 nM. Turning to `C[C@H](O)c1cnc(N)c2c(-c3ccc(C(=O)Nc4cc(C(F)(F)F)ccn4)cc3)nc([C@@H]3CCCN(C(=O)C4(C)COC4)C3)n12` [Example 466, 4-(8-amino-5-[(1S)-1-hydroxyethyl]-3-{(3R)-1-[(3-methyloxetan-3-yl)carbonyl]piperidin-3-yl}imidazo[1,5-a]pyrazin-1-yl)-N-[4-(trifluoromethyl)pyridin-2-yl]benzamide], the IC50 was less than 10 nM. Take `CCC(=O)N1C[C@@H](c2nc(-c3ccc(C(=O)Nc4cc(C(F)(F)F)ccn4)cc3)c3c(N)nccn23)CC[C@@H]1C(F)(F)F` [Example 415, 4-{8-amino-3-[(3S,6R)-1-propanoyl-6-(trifluoromethyl)piperidin-3-yl]imidazo[1,5-a]pyrazin-1-yl}-N-[4-(trifluoromethyl)pyridin-2-yl]benzamide]: the IC50 was less than 10 nM.
